Assay results as given in ChEMBL document CHEMBL1201862, “PubChem BioAssay data set” (2004).
The source made the active and inactive calls.

Columns and labels:
Cytochrome P450 2C9 = Cytochrome P450 2C9 (Homo sapiens, UniProt P11712)
Streptococcus = assay: Group A Streptococcus viability loss, dose response, counter-screen for streptokinase expression inhibitor project, luminescence, BacTiterGlo (AID 1915); format: functional, organism-based;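 note: potency for reduction of bacterial viability or growth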
Streptokinase A = molecular target: T1, Streptokinase A (Streptococcus pyogenes serotype M1, UniProt P10520); assay: S. pyogenes streptokinase expression inhibitors, potency, dose response, plasminogen activation absorbance, OD405 (AID 1914); format: functional, Streptococcus pyogenes M1 GAS;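 note: secreted streptokinase activity via plasminogen activation per viability signal from cell pellet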
T1 sequence (P10520 whole entry): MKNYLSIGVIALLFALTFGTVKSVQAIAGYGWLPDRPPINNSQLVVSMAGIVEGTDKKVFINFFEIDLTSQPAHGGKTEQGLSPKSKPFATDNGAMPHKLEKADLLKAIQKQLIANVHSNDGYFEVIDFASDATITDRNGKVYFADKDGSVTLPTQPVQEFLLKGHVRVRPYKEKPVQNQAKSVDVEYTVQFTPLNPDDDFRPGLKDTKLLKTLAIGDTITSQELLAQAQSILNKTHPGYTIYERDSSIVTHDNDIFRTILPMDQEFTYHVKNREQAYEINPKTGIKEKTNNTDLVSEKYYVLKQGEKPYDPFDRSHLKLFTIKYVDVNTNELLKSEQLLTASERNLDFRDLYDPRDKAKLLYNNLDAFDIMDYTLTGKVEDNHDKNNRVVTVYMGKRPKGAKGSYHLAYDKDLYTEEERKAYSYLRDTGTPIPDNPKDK

[1] = tested on: Streptococcus sp. 'group A'; assay: growth inhibition of control SK(-) GAS strain, dose response, counter-screen for streptokinase expression inhibitor project, luminescence, kanamycin, BacTiterGlo, confirmation (AID 1900); format: functional, organism-based
Cytochrome P450 2C19 = Cytochrome P450 2C19 (Homo sapiens, UniProt P33261); assay: Cytochrome panel assay with activity outcomes. Panel member name: p450-cyp2c19 Compounds with AC50 equal or less than 10 uM are considered active; format: functional; details: read-out: AC50
[2] = molecular target: T2, Heat shock factor protein 1 (Mus musculus, UniProt P38532); assay: HSF1 potentiators in luciferase reporter cells, confirmation, cell-based, NIH3T3, luminescence, dose retest (AID 435004); format: functional;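 note: stress induced by proteasome inhibitor MG132 added 30 min after compound; luciferase reporter driven by HSF1 response element in NIH3T3 cells; actives raise luminescence as potentiators of the MG132 stress response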
T2 sequence (P38532 whole entry): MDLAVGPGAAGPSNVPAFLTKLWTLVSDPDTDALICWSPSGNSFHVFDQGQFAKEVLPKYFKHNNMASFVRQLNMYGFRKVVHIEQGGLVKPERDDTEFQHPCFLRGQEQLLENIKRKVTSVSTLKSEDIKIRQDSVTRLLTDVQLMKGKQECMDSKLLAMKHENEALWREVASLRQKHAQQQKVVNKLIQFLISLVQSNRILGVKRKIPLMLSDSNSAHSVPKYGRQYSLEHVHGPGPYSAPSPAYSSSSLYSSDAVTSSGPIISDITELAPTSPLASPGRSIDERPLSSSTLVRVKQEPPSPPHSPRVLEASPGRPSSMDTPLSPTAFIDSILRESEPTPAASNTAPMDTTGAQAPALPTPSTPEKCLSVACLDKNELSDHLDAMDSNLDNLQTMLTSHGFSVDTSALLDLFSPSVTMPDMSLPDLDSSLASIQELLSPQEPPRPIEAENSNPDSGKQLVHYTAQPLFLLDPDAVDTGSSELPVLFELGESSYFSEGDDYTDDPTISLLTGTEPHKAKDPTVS

[3] = HEp-2 cell cytotoxicity, dose response, cytotoxicity control for RSV inhibitor project, HTS (AID 2410); format: functional; details: human respiratory syncytial virus
[4] = Luminescence Cell-Based Dose Response HTS to Identify Activators of Luciferase Translation or Activity in H4 […] Cells. [Related pubchem assays: 1829 (Project Summary), 1814 (Primary HTS)]; format: functional
H4 = assay: Luminescence Cell-Based Dose Response HTS to Identify Activators of 5'UTR Stem-Loop Driven Prion Protein mRNA Translation in H4 Neuroglioblastoma Cells. [Related pubchem assays: 1829 (Project Summary), 1814 (Primary HTS)]; format: functional; details: Homo sapiens
[5] = NIH-3T3 fibroblast cytotoxicity, dose response, cytotoxicity control, cell-based, fluorescence, Alamar Blue, secondary assay (AID 2327); format: functional;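 note: NIH-3T3 mouse fibroblasts cultured with fluconazole at 8 µg/mL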
[6] = C. albicans growth with fluconazole, confirmation, fluorescence, retest (AID 2467); format: functional, cell-based
[7] = inhibitors of SNCA 5'UTR-driven reporter translation, confirmation, H4 neuroglioma cells, luminescence (AID 1988); format: functional, cell-based
[8] = Luminescence Cell-Based Dose Response HTS to Identify Inhibitors of 5'UTR Stem-Loop Driven Prion Protein mRNA Translation in H4 Neuroglioblastoma Cells. [Related pubchem assays: 1827 (Project Summary), 1813 (Primary HTS)]; format: functional

Sequence of Cytochrome P450 2C9 (P11712 whole entry): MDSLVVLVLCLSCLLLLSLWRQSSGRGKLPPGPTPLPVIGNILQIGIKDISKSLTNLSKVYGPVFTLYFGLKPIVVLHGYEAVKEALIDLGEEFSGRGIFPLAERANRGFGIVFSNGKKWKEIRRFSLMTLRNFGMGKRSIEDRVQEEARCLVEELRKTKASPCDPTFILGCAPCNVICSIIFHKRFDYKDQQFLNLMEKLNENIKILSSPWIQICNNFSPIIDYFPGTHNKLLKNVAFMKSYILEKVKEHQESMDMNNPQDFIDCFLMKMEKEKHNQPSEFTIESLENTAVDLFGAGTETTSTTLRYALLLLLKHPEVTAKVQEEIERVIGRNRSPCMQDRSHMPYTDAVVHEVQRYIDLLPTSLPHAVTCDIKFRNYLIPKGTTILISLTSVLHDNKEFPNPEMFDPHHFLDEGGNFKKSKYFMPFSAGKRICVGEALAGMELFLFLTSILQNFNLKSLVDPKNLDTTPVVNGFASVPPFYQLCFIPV
Sequence of Cytochrome P450 2C19 (P33261 whole entry): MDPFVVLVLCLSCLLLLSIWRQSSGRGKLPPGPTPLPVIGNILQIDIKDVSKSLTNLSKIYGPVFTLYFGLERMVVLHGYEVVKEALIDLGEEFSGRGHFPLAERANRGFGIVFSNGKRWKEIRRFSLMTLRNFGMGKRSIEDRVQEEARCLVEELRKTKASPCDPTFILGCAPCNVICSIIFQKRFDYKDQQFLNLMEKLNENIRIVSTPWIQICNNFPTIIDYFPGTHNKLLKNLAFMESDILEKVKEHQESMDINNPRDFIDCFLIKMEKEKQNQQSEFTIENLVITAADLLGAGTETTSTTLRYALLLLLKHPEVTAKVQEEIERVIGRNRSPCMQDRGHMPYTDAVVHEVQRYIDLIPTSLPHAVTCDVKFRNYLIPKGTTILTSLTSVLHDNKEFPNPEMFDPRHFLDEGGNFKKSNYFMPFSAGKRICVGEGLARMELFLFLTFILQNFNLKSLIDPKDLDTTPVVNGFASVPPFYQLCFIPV

Row | SMILES | AC50 (Cytochrome P450 2C9) | EC50 (Streptococcus) | EC50 (Streptokinase A) | EC50 [1] | also measured
1 | CN(C)C(=O)c1ccc(-c2ccc3ncnc(N(C)C)c3c2)cc1 | 1.26 µM (inconclusive) |  |  |  | 
2 | O=C(/C=C/c1ccccc1)NC(=S)NNC(=O)Cc1cccs1 |  | 30.3 µM (active) | > 150 µM (not active) | 1.39 µM (active) | 
3 | CCOc1ccc(C(C)=O)cc1N1C(=O)C2C(C1=O)C1C=CC2C12CC2 (centres undefined) | 14.1 µM (inconclusive) |  |  |  | AC50 (Cytochrome P450 2C19): 17.8 µM (inconclusive)
4 | O=C(CNC(=O)c1ccco1)NCc1nc2ccccc2[nH]1 |  | > 150 µM (not active) | > 150 µM (not active) | > 150 µM (not active) | 
5 | Cn1ncc(Br)c1C(=O)N1CCOCC1 |  |  |  |  | EC50 [2]: > 260 µM (inactive)
6 | O=C(Nc1cccnc1)C1COc2ccccc2O1 (centres undefined) | 5.01 µM (inconclusive) |  |  |  | 
7 | Cc1ccc(S(=O)(=O)NCC(=O)OCC(=O)N2N=C(c3ccc(Cl)cc3)CC2c2ccco2)cc1C (centres undefined) |  | 61 µM (active) | 22.4 µM (active) | 18.6 µM (active) | 
8 | CC(=O)OCc1c(C(F)(F)F)nn(C)c1Sc1ccccc1 | 28.2 µM (inconclusive) |  |  |  | 
9 | O=C(COC(=O)c1cn(-c2ccccc2)nc1-c1ccccc1)c1ccc([N+](=O)[O-])cc1 |  |  |  |  | EC50 [2]: > 260 µM (inactive)
10 | CCc1nn(C(C)C(=O)NC(C)CCc2ccco2)c(=O)c2cc3occc3n12 (centres undefined) |  |  |  |  | EC50 [2]: > 260 µM (inactive); CC50 [3]: > 50 µM (active)
11 | CC(=O)Nc1nnc(S(=O)(=O)N2CCN(c3ccc(Cl)cc3[N+](=O)[O-])CC2)s1 |  | > 150 µM (not active) | > 150 µM (not active) | 29.1 µM (active) | 
12 | O=C(COc1cccc2cccnc12)Nc1ccccc1 |  |  |  |  | EC50 [4]: 15.4 µM (active); EC50 (H4): 15 µM (active)
13 | CC1CCC(C(=O)c2c(O)oc3ccccc3c2=O)CC1 (centres undefined) |  | 20.3 µM (active) | > 150 µM (not active) | 10.4 µM (active) | EC50 [5]: > 150 µM (inactive); EC50 [6]: 2.01 µM (active)
14 | c1ccc(Nc2nc(N3CCCCC3)nc(N3CCCCC3)n2)cc1 |  | 33.9 µM (active) | > 150 µM (not active) | 11.7 µM (active) | 
15 | COC(=O)[C@@H]1CC[C@H](C)[C@@H](c2ccc(C)cc2)N1C(=O)c1ccc(/C=N\OCC[C@@H]2C=C[C@H](OC(C)=O)[C@H](COC(C)=O)O2)cc1 | 3.98 µM (inconclusive) |  |  |  | 
16 | COc1ccc(/C=C2\SC(=S)N(CCC(=O)NC3C=CS(=O)(=O)C3)C2=O)cc1 (centres undefined) |  |  |  |  | EC50 [7]: 13.4 µM (active); EC50 [8]: 15.7 µM (active)
17 | CC(/C=C/c1ccc(N(C)C)cc1)=N/NC1=NC(=O)CC(C(=O)Nc2ccc(Cl)cc2)S1 (centres undefined) |  | 8.65 µM (active) | > 150 µM (not active) | 2.94 µM (active) | 
18 | Cn1c(-c2ccc(F)cc2)cnc1NCc1cccc(F)c1 | 39.8 µM (inconclusive) |  |  |  | 
19 | O=c1c2ccccc2nc(SCc2cn3ccsc3n2)n1-c1ccccc1 |  |  |  |  | EC50 [2]: > 260 µM (inactive)
20 | O=C(Nc1cccc(F)c1)N1CCC2(CC1)CCN(C(=O)Oc1ccccc1)CC2 | 39.8 µM (inconclusive) |  |  |  | 
21 | COc1ccc2[nH]cc(CCNc3ncnc4ccc(-c5ccoc5)cc34)c2c1 | 0.398 µM (inconclusive) |  |  |  | 
22 | Cn1c(-c2ccc(Br)cc2)cnc1NCc1cccnc1 | 15.8 µM (inconclusive) |  |  |  | AC50 (Cytochrome P450 2C19): 17.8 µM (inconclusive)
23 | CCS(=O)(=O)Nc1ccc2[nH]c(O)nc2c1 |  |  |  |  | EC50 [2]: > 260 µM (inactive)
